In ChEMBL document CHEMBL4837258, “Discovery of Novel UDP-N-Acetylglucosamine Acyltransferase (LpxA) Inhibitors with Activity against Pseudomonas aeruginosa” (J Med Chem, 2021):
In brackets after ≈: the same amount, converted by molar mass.

Columns and labels:
physchem = conditions: 1-octanol/phosphate buffer, pH 7.4
[1] = Aqueous solubility of compound incubated for 90 mins under shaking condition; format: physicochemical; conditions: buffer
[2] = AUCinfinity in CD1 mouse at 5 mg/kg, iv pretreated with ABT followed by compound treatment and measured upto 7 hrs by LC-MS/MS analysis; format: ADME, organism-based; design: route intravenous, dose 5 mg/kg, time <=7; conditions: in vivo
[3] = Oral bioavailability in CD1 mouse at 3 mg/kg pretreated with ABT followed by compound treatment and measured upto 7 hrs by LC-MS/MS analysis; format: ADME, organism-based; conditions: in vivo
[4] = AUCinfinity in CD1 mouse at 1 mg/kg, iv pretreated with ABT followed by compound treatment and measured upto 7 hrs by LC-MS/MS analysis; format: ADME, organism-based; design: route intravenous, dose 1 mg/kg, time <=7; conditions: in vivo
[5] = Volume of distribution at steady state in CD1 mouse at 1 mg/kg, iv pretreated with ABT followed by compound treatment and measured upto 7 hrs by LC-MS/MS analysis; format: ADME, organism-based; conditions: in vivo, read-out: Vdss
[6] = Volume of distribution at steady state in CD1 mouse at 5 mg/kg, iv pretreated with ABT followed by compound treatment and measured upto 7 hrs by LC-MS/MS analysis; format: ADME, organism-based; conditions: in vivo, read-out: Vdss
[7] = AUCinfinity in CD1 mouse at 3 mg/kg, po pretreated with ABT followed by compound treatment and measured upto 7 hrs by LC-MS/MS analysis; format: ADME, organism-based; design: route oral, dose 3 mg/kg, time <=7; conditions: in vivo
[8] = AUCinfinity in CD1 mouse at 30 mg/kg, po pretreated with ABT followed by compound treatment and measured upto 7 hrs by LC-MS/MS analysis; format: ADME, organism-based; design: route oral, dose 30 mg/kg, time <=7; conditions: in vivo
[9] = Oral bioavailability in CD1 mouse at 30 mg/kg pretreated with ABT followed by compound treatment and measured upto 7 hrs by LC-MS/MS analysis; format: ADME, organism-based; conditions: in vivo
[10] = AUCinfinity in CD1 mouse at 3 mg/kg, iv measured upto 7 hrs by LC-MS/MS analysis; format: ADME, organism-based; design: route intravenous, dose 3 mg/kg, time <=7; conditions: in vivo
[11] = AUCinfinity in CD1 mouse at 3 mg/kg, iv pretreated with ABT followed by compound treatment and measured upto 7 hrs by LC-MS/MS analysis; format: ADME, organism-based; design: route intravenous, dose 3 mg/kg, time <=7; conditions: in vivo
[12] = Volume of distribution at steady state in CD1 mouse at 85 mg/kg, iv measured upto 7 hrs by LC-MS/MS analysis; format: ADME, organism-based; conditions: in vivo, read-out: Vdss
[13] = Volume of distribution at steady state in CD1 mouse at 3 mg/kg, iv measured upto 7 hrs by LC-MS/MS analysis; format: ADME, organism-based; conditions: in vivo, read-out: Vdss
[14] = Oral bioavailability in CD1 mouse at 5 mg/kg measured upto 7 hrs by LC-MS/MS analysis; format: ADME, organism-based; conditions: in vivo
[15] = AUCinfinity in CD1 mouse at 85 mg/kg, iv measured upto 7 hrs by LC-MS/MS analysis; format: ADME, organism-based; design: route intravenous, dose 85 mg/kg, time <=7; conditions: in vivo
[16] = AUCinfinity in CD1 mouse at 5 mg/kg, po pretreated with ABT followed by compound treatment and measured upto 7 hrs by LC-MS/MS analysis; format: ADME, organism-based; design: route oral, dose 5 mg/kg, time <=7; conditions: in vivo
[17] = Volume of distribution at steady state in CD1 mouse at 3 mg/kg, iv pretreated with ABT followed by compound treatment and measured upto 7 hrs by LC-MS/MS analysis; format: ADME, organism-based; conditions: in vivo, read-out: Vdss

Structure (SMILES)	logD at 2 h, 25 µM (physchem)	solubility at […] [1]	other results
N#Cc1ccc(CN(Cc2nnc(N)o2)C(=O)CSc2ccccc2Cl)cc1	2	120 µg/mL (≈ 290 µM)	–
N#Cc1ccc(CN(Cc2nnc(N)o2)C(=O)CCc2ccccc2)cn1	1.5	–	–
N#Cc1ccc(CN(Cc2nnc(N)o2)C(=O)CSc2ncccc2Cl)cn1	1.1	–	–
N#Cc1cc(F)c(CN(Cc2nnc(N)o2)C(=O)CSc2cc(F)cc(F)c2Cl)c(F)c1	2.4	60 µg/mL (≈ 123 µM)	–
N#Cc1ccc(CN(Cc2nnc(N)o2)C(=O)CSc2ccccc2OC(F)(F)F)c(F)c1	1.6	90 µg/mL (≈ 187 µM)	–
N#Cc1ccc(CN(Cc2nnc(N)o2)C(=O)COc2ccccc2Cl)cn1	1	850 µg/mL (≈ 2130 µM)	–
CCc1ccccc1SCC(=O)N(Cc1ccc(C#N)cc1)Cc1nnc(N)o1	2.5	–	–
[2H]C([2H])(Oc1cc(F)cc(F)c1C([2H])([2H])C([2H])([2H])[2H])C(=O)N(Cc1nnc(N)o1)Cc1ccc(C#N)cc1F	3	–	–
N#Cc1ccc(CN(Cc2nnc(N)o2)C(=O)CSc2cc(F)cc(F)c2Cl)c(F)c1	2.6	–	–
[2H]C([2H])(Oc1cc(F)cc(F)c1C([2H])([2H])C([2H])([2H])[2H])C(=O)N(Cc1nnc(N)o1)Cc1ccc(S(N)(=O)=O)cc1F	2	460 µg/mL (≈ 908 µM)	AUC(0-inf) [10]: 62100 ng·h/mL; AUC(0-inf) [11]: 35300 ng·h/mL; Vd [12]: 10.3 L/kg; Vd [13]: 0.34 L/kg; bioavailability [14]: 7.4%; AUC(0-inf) [15]: 24000 ng·h/mL; AUC(0-inf) [16]: 7690 ng·h/mL; Vd [17]: 0.31 L/kg
Nc1nnc(CN(Cc2ccc(S(N)(=O)=O)cc2F)C(=O)CSc2cc(F)cc(F)c2Cl)o1	1.8	330 µg/mL (≈ 632 µM)	–
CCc1c(F)cc(F)cc1O[C@H](C)C(=O)N(Cc1nnc(N)o1)Cc1ccc(C#N)cc1F	3	–	–
CCc1c(F)cc(F)cc1OCC(=O)N(Cc1nnc(N)o1)Cc1ccc(S(N)(=O)=O)cc1F	2.1	–	–
N#Cc1ccc(CN(Cc2nnc(N)o2)C(=O)CSc2ccccc2Cl)cn1	1.4	340 µg/mL (≈ 820 µM)	–
N#Cc1ccc(CN(Cc2nnc(N)o2)C(=O)CSc2ccccc2CC(F)(F)F)c(F)c1	2.3	90 µg/mL (≈ 188 µM)	–

Continued, in another order:

logD at 2 h, 25 µM (physchem)	solubility at […] [1]	Structure (SMILES)	other results
1.4	–	N#Cc1ccc(CN(Cc2nnc(N)o2)C(=O)COc2cc(F)cc(F)c2Cl)cn1	–
2.2	150 µg/mL (≈ 348 µM)	Nc1nnc(CN(Cc2ccc(O)nc2)C(=O)COc2cc(F)cc(F)c2C2CC2)o1	–
2.7	–	CCc1c(F)cc(F)cc1OCC(=O)N(Cc1nnc(N)o1)Cc1ccc(C#N)cc1F	–
2.1	–	Nc1nnc(CN(Cc2ccc(S(N)(=O)=O)cc2F)C(=O)COc2cc(F)cc(F)c2C2CC2)o1	–
2.2	–	N#Cc1ccc(CN(Cc2nnc(N)o2)C(=O)COc2cc(F)cc(F)c2C2CC2)cn1	–
2.8	–	CCc1c(F)cc(F)cc1OCC(=O)N(Cc1ccc(C#N)cc1)Cc1nnc(N)o1	AUC(0-inf) [2]: 1040 ng·h/mL; bioavailability [3]: 48.6%; AUC(0-inf) [4]: 218 ng·h/mL; Vd [5]: 3.97 L/kg; Vd [6]: 3.3 L/kg; AUC(0-inf) [7]: 323 ng·h/mL; AUC(0-inf) [8]: 9180 ng·h/mL; bioavailability [9]: 138%
2.1	–	[2H]C([2H])(Oc1cc(F)cc(F)c1C([2H])([2H])C([2H])([2H])[2H])C(=O)N(Cc1ccc(C#N)nc1)Cc1nnc(N)o1	–
